PubChem BioAssay AID1259407 (Chemical Carcinogenesis Research Information System (CCRIS), 2018)
Activity calls are given as the source filed them. The rule behind the calls is not given here.

Test system: CCRIS mutagenicity, Ames/micronucleus/aberration tests
Experiment: CCRIS mutagenicity studies
[1] = Test System: AMES SALMONELLA TYPHIMURIUM, Strain/Indicator: TA98, Metabolic Activation: NONE, Method: STANDARD PLATE
[2] = Test System: AMES SALMONELLA TYPHIMURIUM, Strain/Indicator: TA98, Metabolic Activation: RAT, LIVER, S-9, AROCLOR 1254, Method: STANDARD PLATE
[3] = Test System: AMES SALMONELLA TYPHIMURIUM, Strain/Indicator: TA100, Metabolic Activation: NONE, Method: STANDARD PLATE
[4] = Test System: AMES SALMONELLA TYPHIMURIUM, Strain/Indicator: TA98, Metabolic Activation: NONE, Method: PREINCUBATION
[5] = Test System: AMES SALMONELLA TYPHIMURIUM, Strain/Indicator: TA100, Metabolic Activation: NONE, Method: PREINCUBATION

Compound: CC1=CC(=O)CC(C)(C)C1
- mutagenic call (End Point: IN VITRO CHROMOSOMAL ABERRATIONS, Test System: CHINESE HAMSTER LUNG FIBROBLAST CELLS (CHL/IU), Metabolic Activation: RAT, LIVER, S-9, PHENOBARBITAL AND 5,6-BENZOFLAVONE): active; positive (structural changes)
- mutagenic call (End Point: IN VITRO CHROMOSOMAL ABERRATIONS, Test System: CHO CELLS, Metabolic Activation: NONE): inactive; negative; precipitation occurred at 1600 ug/ml
- mutagenic call (End Point: IN VITRO CHROMOSOMAL ABERRATIONS, Test System: CHO CELLS, Metabolic Activation: RAT, LIVER, S-9, AROCLOR 1254): inactive; negative
- mutagenic call (Test System: AMES SALMONELLA TYPHIMURIUM, Strain/Indicator: TA98, Metabolic Activation: HAMSTER, LIVER, S-9, AROCLOR 1254, Method: STANDARD PLATE): inactive; negative
- mutagenic call [1]: inactive; negative
- mutagenic call [2]: inactive; negative
- mutagenic call (Test System: AMES SALMONELLA TYPHIMURIUM, Strain/Indicator: TA100, Metabolic Activation: HAMSTER, LIVER, S-9, AROCLOR 1254, Method: STANDARD PLATE): inactive; negative
- mutagenic call [3]: inactive; negative
- mutagenic call (Test System: AMES SALMONELLA TYPHIMURIUM, Strain/Indicator: TA100, Metabolic Activation: RAT, LIVER, S-9, AROCLOR 1254, Method: STANDARD PLATE): inactive; negative
- mutagenic call (Test System: AMES SALMONELLA TYPHIMURIUM, Strain/Indicator: TA1535, Metabolic Activation: HAMSTER, LIVER, S-9, AROCLOR 1254, Method: STANDARD PLATE): inactive; negative
- mutagenic call (Test System: AMES SALMONELLA TYPHIMURIUM, Strain/Indicator: TA1535, Metabolic Activation: NONE, Method: STANDARD PLATE): inactive; negative
- mutagenic call (Test System: AMES SALMONELLA TYPHIMURIUM, Strain/Indicator: TA1535, Metabolic Activation: RAT, LIVER, S-9, AROCLOR 1254, Method: STANDARD PLATE): inactive; negative
- mutagenic call (Test System: AMES SALMONELLA TYPHIMURIUM, Strain/Indicator: TA1537, Metabolic Activation: HAMSTER, LIVER, S-9, AROCLOR 1254, Method: STANDARD PLATE): inactive; negative
- mutagenic call (Test System: AMES SALMONELLA TYPHIMURIUM, Strain/Indicator: TA1537, Metabolic Activation: NONE, Method: STANDARD PLATE): inactive; negative
- mutagenic call (Test System: AMES SALMONELLA TYPHIMURIUM, Strain/Indicator: TA1537, Metabolic Activation: RAT, LIVER, S-9, AROCLOR 1254, Method: STANDARD PLATE): inactive; negative
- mutagenic call (Test System: MOUSE LYMPHOMA, Strain/Indicator: L5178Y (TK+/TK-), Metabolic Activation: NONE, Method: MICROWELL): inactive; negative
- mutagenic call (Test System: MOUSE LYMPHOMA, Strain/Indicator: L5178Y (TK+/TK-), Metabolic Activation: RAT, LIVER, S-9, AROCLOR 1242 AND AROCLOR 1254 (2:1), Method: SUSPENSION/PLATE): inactive; negative
- mutagenic call (Test System: UDS RAT HEPATOCYTES, Strain/Indicator: BROMODEOXYURIDINE INCORP, Metabolic Activation: NONE, Method: FLOW CYTOMETRIC ANALYSIS): active; positive
- mutagenic call (Test System: UDS RAT HEPATOCYTES, Strain/Indicator: THY INCORP, Metabolic Activation: NONE, Method: AUTORADIOGRAPHY): active; positive

Compound: Nc1nc(-c2cccc([N+](=O)[O-])c2)nc2c1ncn2[C@@H]1O[C@H](CO)[C@@H](O)[C@H]1O
- mutagenic call [4]: inactive; negative
- mutagenic call (Test System: AMES SALMONELLA TYPHIMURIUM, Strain/Indicator: TA98, Metabolic Activation: RAT, LIVER, S-9, PCB, Method: PREINCUBATION): inactive; negative
- mutagenic call [5]: active; positive
- mutagenic call (Test System: AMES SALMONELLA TYPHIMURIUM, Strain/Indicator: TA100, Metabolic Activation: RAT, LIVER, S-9, PCB, Method: PREINCUBATION): active; positive

Compound: O=[N+]([O-])c1ccc(Cl)c([N+](=O)[O-])c1
- mutagenic call (Test System: AMES SALMONELLA TYPHIMURIUM, Strain/Indicator: TA98(1,8-DNP6), Metabolic Activation: NONE, Method: PREINCUBATION): active; positive
- mutagenic call (Test System: AMES SALMONELLA TYPHIMURIUM, Strain/Indicator: TA98(NR), Metabolic Activation: NONE, Method: PREINCUBATION): active; positive
- mutagenic call [4]: active; positive
- mutagenic call [1]: active; positive
- mutagenic call (Test System: AMES SALMONELLA TYPHIMURIUM, Strain/Indicator: TA98, Metabolic Activation: RAT LIVER S-9, AROCLOR 1254 (10%), Method: STANDARD PLATE): active; positive
- mutagenic call (Test System: AMES SALMONELLA TYPHIMURIUM, Strain/Indicator: TA98, Metabolic Activation: RAT, LIVER, S-9, KANECHLOR 500, Method: PREINCUBATION): active; positive
- mutagenic call (Test System: AMES SALMONELLA TYPHIMURIUM, Strain/Indicator: TA98NR/1,8-DNP6, Metabolic Activation: NONE, Method: STANDARD PLATE): inactive; negative
- mutagenic call (Test System: AMES SALMONELLA TYPHIMURIUM, Strain/Indicator: TA98NR, Metabolic Activation: NONE, Method: STANDARD PLATE): active; positive
- mutagenic call (Test System: AMES SALMONELLA TYPHIMURIUM, Strain/Indicator: TA100(NR), Metabolic Activation: NONE, Method: PREINCUBATION): active; positive
- mutagenic call (Test System: AMES SALMONELLA TYPHIMURIUM, Strain/Indicator: TA100/GSH-, Metabolic Activation: NONE, Method: PREINCUBATION): active; positive
- mutagenic call [5]: active; positive
- mutagenic call [3]: active; positive
- mutagenic call (Test System: AMES SALMONELLA TYPHIMURIUM, Strain/Indicator: TA100, Metabolic Activation: RAT, LIVER, S-9, KANECHLOR 500, Method: PREINCUBATION): inactive; negative
- mutagenic call (Test System: AMES SALMONELLA TYPHIMURIUM, Strain/Indicator: YG1021, Metabolic Activation: NONE, Method: STANDARD PLATE): active; positive
- mutagenic call (Test System: AMES SALMONELLA TYPHIMURIUM, Strain/Indicator: YG1024, Metabolic Activation: NONE, Method: STANDARD PLATE): active; positive
- mutagenic call (Test System: Ames Salmonella typhimurium, Strain/Indicator: TA98, Metabolic Activation: None, Method: Preincubation): active; positive
- mutagenic call (Test System: Ames Salmonella typhimurium, Strain/Indicator: TA98, Metabolic Activation: Rat, Liver, S9, Sodium phenobarbital and 5,6-benzoflavone (10%), Method: Preincubation): active; positive
- mutagenic call (Test System: Ames Salmonella typhimurium, Strain/Indicator: TA100, Metabolic Activation: None, Method: Preincubation): active; positive
- mutagenic call (Test System: Ames Salmonella typhimurium, Strain/Indicator: TA100, Metabolic Activation: Rat, Liver, S9, Sodium phenobarbital and 5,6-benzoflavone (10%), Method: Preincubation): active; positive
- mutagenic call (Test System: Ames Salmonella typhimurium, Strain/Indicator: TA1535, Metabolic Activation: None, Method: Preincubation): active; positive
- mutagenic call (Test System: Ames Salmonella typhimurium, Strain/Indicator: TA1535, Metabolic Activation: Rat, Liver, S9, Sodium phenobarbital and 5,6-benzoflavone (10%), Method: Preincubation): active; positive
- mutagenic call (Test System: Ames Salmonella typhimurium, Strain/Indicator: TA1537, Metabolic Activation: Rat, Liver, S9, Sodium phenobarbital and 5,6-benzoflavone (10%), Method: Preincubation): active; positive

Compound: Cc1cnc2cc(C)c3c(nc(N)n3C)c2n1
- mutagenic call [2]: active; positive

Compound: NC(=O)c1csc([N+](=O)[O-])c1
- mutagenic call [1]: active; positive
- mutagenic call [3]: active; positive

Compound: O[C@H]1[C@@H]2O[C@@H]2c2c(ccc3cc4c(ccc5ccccc54)nc23)[C@@H]1O
- mutagenic call [4]: active; positive
- mutagenic call (Test System: AMES SALMONELLA TYPHIMURIUM, Strain/Indicator: TA98, Metabolic Activation: RAT, LIVER, AROCLOR 1254, NADPH GENERATING SYSTEM, Method: STANDARD PLATE): active; positive
- mutagenic call [5]: active; positive
- mutagenic call (Test System: AMES SALMONELLA TYPHIMURIUM, Strain/Indicator: TA100, Metabolic Activation: RAT, LIVER, AROCLOR 1254, NADPH GENERATING SYSTEM, Method: STANDARD PLATE): active; positive
- mutagenic call (Test System: CHINESE HAMSTER V-79, Strain/Indicator: V-79/8-AZAGUANINE, Metabolic Activation: NONE): active; positive
- mutagenic call (Test System: CHINESE HAMSTER V-79, Strain/Indicator: V-79/8-AZAGUANINE, Method: STANDARD PLATE): active; positive
